Source: patent US20160024083A1, “COMPOUNDS AND METHODS FOR TREATING CANCERS” (HEALTH RESEARCH, INC., priority 2013, published 2016)
Each block holds one molecule with its values, some of them ahead of it.

Experiments:
Mdm2 = Mdm2 accumulation, Western Blot; assay type: cell-based; conditions: MCF7 cells with functionally inactive p53 (R175H, GSE56)
Protocol: Results of Western Blot analysis: CWR22r cells were treated with 1 uM c52 for indicated time intervals.
(§1) Also tested was the hypothesis that degradation of androgen receptor in prostate and breast cancer cells may be due to p53 induced accumulation of mdm2, which is also ubiquitin ligase for androgen receptor (FIG. 15). p53 was inactivated in several cell lines using different approaches what led to the blockade of mdm2 accumulation after c52 treatment. However androgen receptor was still degraded in c52 treated cells even in the absence of p53 activation and mdm2 accumulation (FIG. 16).

AU565 = assay: Sensitivity to growth inhibition, AU565; assay type: cell-based; conditions: Luminal breast carcinoma, AR+
PANC1 = assay: Sensitivity to growth inhibition, PANC1; assay type: cell-based; conditions: pancreatic adenocarcinoma, AR−
HCC202 = assay: Sensitivity to growth inhibition, HCC202; assay type: cell-based; conditions: Luminal breast carcinoma, AR−
ZR751 = assay: Sensitivity to growth inhibition, ZR751; assay type: cell-based; conditions: Luminal breast carcinoma, AR+
NKE = assay: Sensitivity to growth inhibition, NKE; assay type: cell-based; conditions: normal kidney, AR−
MRC5 = assay: Sensitivity to growth inhibition, MRC5; assay type: cell-based; conditions: normal fibroblasts, AR−
PPC1 = assay: Sensitivity to growth inhibition, PPC1; assay type: cell-based; conditions: castration resistant prostate cancer, AR−
CAMA1 = assay: Sensitivity to growth inhibition, CAMA1; assay type: cell-based; conditions: Luminal breast carcinoma, AR+
MDAMB453 = assay: Sensitivity to growth inhibition, MDAMB453; assay type: cell-based; conditions: Luminal breast carcinoma, AR+
Hela = assay: Inhibition of growth / toxicity in non-target Hela cells; assay type: cell-based
Protocol: (§2) This example provides a table (below) of the compounds of the present disclosure and their activity towards four different cell lines (i.e., CWR22R, HeLa, PC3, and MDA-MB-231). The IC50 for inhibition of growth is divided into 4 categories: A<1 μM, B 1-5 μM, C 5-20 μM, D>20 μM.
(§3) All compounds were tested for toxicity using 4 cells lines, target cells—CWR22R and non-target cells, Hela, PC3 and MDA-MB-231 (FIGS. 1A-F).

PC3 = assay: Inhibition of growth / toxicity in non-target PC3 cells; assay type: cell-based; conditions: castration resistant prostate cancer, AR−
Protocol: as §2, §3

HMEC = assay: Sensitivity to growth inhibition, HMEC; assay type: cell-based; conditions: normal breast
MCF10A = assay: Sensitivity to growth inhibition, MCF10A; assay type: cell-based; conditions: mammary gland epithelium
BT474 = assay: Sensitivity to growth inhibition, BT474; assay type: cell-based; conditions: Luminal breast carcinoma, AR+
MDAMB415 = assay: Sensitivity to growth inhibition, MDAMB415; assay type: cell-based; conditions: Luminal breast carcinoma, AR+
ZR7530 = assay: Sensitivity to growth inhibition, ZR7530; assay type: cell-based; conditions: Luminal breast carcinoma, AR+
UACC893 = assay: Sensitivity to growth inhibition, UACC893; assay type: cell-based; conditions: Luminal breast carcinoma, AR+
RCC45 = assay: Sensitivity to growth inhibition, RCC45; assay type: cell-based; conditions: renal cell carcinoma, AR−
CWR22R = assay: cells; assay type: cell-based
Protocol: FIG. 21. Toxicity of PLA1055 to CWR22R cells in vitro depending on time of incubation. PLA1055 was added to CWR22R in full range of concentrations for the periods of time shown on the right. After that drug containing media were changed for drug free and survival of cells was detected at 72 hours after start of treatment using Alamar Blue assay (Promega).
as §2, §3
(§4) LC50 data of in vitro 72 hours cytotoxicity assay are included in this table for comparison.
An in vitro experiment was run to detect the concentration of PLA1055 needed to kill all tumor cells in vitro (LC90) during different periods of time (30 minutes-72 hours, FIG. 21)).

C4-2 = assay: Sensitivity to growth inhibition, C4-2; assay type: cell-based; conditions: castration resistant prostate cancer, AR+
Du145 = assay: Sensitivity to growth inhibition, Du145; assay type: cell-based; conditions: castration resistant prostate cancer, AR−
MCF7 = assay: Sensitivity to growth inhibition, MCF7; assay type: cell-based; conditions: Luminal breast carcinoma, AR+
SUM185PE = assay: Sensitivity to growth inhibition, SUM185PE; assay type: cell-based; conditions: Luminal breast carcinoma, AR+
normal hepatocytes = assay: Sensitivity to growth inhibition, normal hepatocytes; assay type: cell-based
MDA-MB-231 = assay: Inhibition of growth / toxicity in non-target MDA-MB-231 cells; assay type: cell-based; conditions: Homo sapiens
Protocol: as §2, §3

MiaPaca = assay: Sensitivity to growth inhibition, MiaPaca; assay type: cell-based; conditions: pancreatic adenocarcinoma, AR−
VCaP = assay: Sensitivity to growth inhibition, VCaP; assay type: cell-based; conditions: castration resistant prostate cancer, Armut
HT1080 = assay: Sensitivity to growth inhibition, HT1080; assay type: cell-based; conditions: fibrosarcoma AR−
ACHN = assay: Sensitivity to growth inhibition, ACHN; assay type: cell-based; conditions: renal cell carcinoma, AR−
SKRC45 = assay: Sensitivity to growth inhibition, SKRC45; assay type: cell-based; conditions: renal cell carcinoma, AR−
HepG2 = assay: Sensitivity to growth inhibition, HepG2; assay type: cell-based; conditions: hepatocellular carcinoma, AR +
Hep3B = assay: Sensitivity to growth inhibition, Hep3B; assay type: cell-based; conditions: hepatocellular carcinoma, AR +
T47D = assay: Sensitivity to growth inhibition, T47D; assay type: cell-based; conditions: Luminal breast carcinoma, AR+
EFM192A = assay: Sensitivity to growth inhibition, EFM192A; assay type: cell-based; conditions: Luminal breast carcinoma, AR−
HCC1419 = assay: Sensitivity to growth inhibition, HCC1419; assay type: cell-based; conditions: Luminal breast carcinoma, AR+
LNCaP = assay: Sensitivity to growth inhibition, LNCaP; assay type: cell-based; conditions: castration resistant prostate cancer, AR+
CWR22R tumors = assay: In vivo efficacy, subcutaneous xenografts of CWR22R cells in SCID mice
Protocol: (§5) We tested these compounds in an in vivo efficacy experiment using model of CRPC in SCID mice, CWR22R. Two compounds, PLA1079 and 1125, which were synthesized in the amount of 500 mg were tested in full scale experiment with either 5 IV daily injections or 10 IP daily injections. After 5 IP or IV injections intra-tumor concentration of the compounds were measured in few mice from this experiment.
(§6) Two other compounds, PLA1148 and 1098 (PK testing in FIGS. 8 and 9) were tested in a small scale efficacy experiment. Upon PK testing of the compound PLA1148 one mouse was injected twice with 10 min interval. However the concentration of the drug in plasma of this mouse was not twice, but >4 times higher than in mice injected once. […] It was decided to utilize this observation in an attempt to get higher plasma and tumor concentration of both compounds. Therefore in the pilot efficacy experiment in the same model of CWR22R cells mice were treated with 2 IP injections with 10 minute interval. Treatment with PLA1098 was carried out for two days. […] However this is so far the highest concentration found in tumor.
Pilot efficacy experiments were run for compounds: PLA1163, PLA1148 using the same model of subcutaneous xenografts of CWR22R cells in SCID mice (FIGS. 18 and 19).

[1] = Tissue drug concentrations (tumor, liver, plasma) in treated CWR22R tumor-bearing mice; assay type: in vivo
Protocol: as §5
as §6, with “tumor. […]” for “tumor.”
as §4

Caveolin 1 = Caveolin 1 expression in sensitive versus resistant cells; assay type: cell-based; conditions: MDA MB 231 and MCF7 cells
Protocol: FIG. 12. Expression of Caveolinl in sensitive versus resistant cells. Caveolinl is expressed in resistant MDA MB 231 cells, but not in sensitive MCF7 cells.
Analysis of gene expression among 50 breast cancer cell lines differed in sensitivity as well as shRNA screening of resistant breast cancer cells identified Calveolin (FIG. 11) as a potential gene associated with resistance to c52. mRNA expression of Calveolin1 was tested among our sensitive and resistant cells as well as in response to c52 treatment. As expected Calveolin1 was expressed only in resistant cells, however it was not changed upon c52 treatment (FIG. 12). […] Calveolin1 was cloned in lentiviral expression vector and are now testing if overexpression of Calveolin1 in sensitive cells will make them resistant to c52 treatment.

p21 = p21 expression upon treatment; assay type: cell-based; conditions: sensitive cells
androgen receptor = assay: Androgen receptor level / degradation in cells; assay type: cell-based; conditions: CWR22r or MCF7 cells with inhibited p53 activity
Description: as §1

[2] = Plasma concentration (PK) after intravenous and intraperitoneal injections; assay type: in vivo; conditions: 50-100 mg/kg; for plasma concentration time course: after IV and IP injections; for bioavailability through IP injection: plasma concentrations similar or even higher after IP than IV
[3] = system: presumable target protein; assay: DARTS (Drug Affinity Responsive Target Stability) assay in CWR22r lysates; assay type: binding; conditions: protein lysates from CWR22r cells
Protocol: FIG. 24. DARTS (Drug Affinity Responsive Target Stability) assay was performed using c52 and PLA1118. According to this assay these compounds are capable of protecting presumable target protein from protease degradation. Protein lysates from sensitive CWR22r cells were incubated with or without the drug and subsequently digested with the indicated concentration of pronase. A. c52 was used (lane T-treated, M-marker) with indicated concentrations of pronase; ability of c52 to protect its target from protease cleavage was judged based on presence of protein band in the treated lane vs the untreated (UT) control.
Target identification through affinity chromatography and sensitivity to proteolysis methods was undertaken. […] These bands were excised from gel and sent for protein sequencing. (FIG. 24).

[4] = Toxicity / side effects in treated mice; assay type: in vivo
Protocol: as §6
This compound may be also potentially promising.

SMILES: CC(=O)c1ccc2c(c1)c1cc(C(C)=O)ccc1n2CCNC(C)C [CBL 137, reference compound]
Mdm2 level (Mdm2): Mdm2 is no longer overexpressed

SMILES: CCCn1c2ccccc2c2cc(C(C)=O)ccc21 [Compound 1-3, 1-(9-propyl-9H-carbazol-3-yl)ethanone]
Compound 1-3 sensitivity (AU565): S | Compound 1-3 sensitivity (PANC1): R | Compound 1-3 sensitivity (HCC202): S | Compound 1-3 sensitivity (ZR751): S | Compound 1-3 sensitivity (NKE): R | Compound 1-3 sensitivity (MRC5): R | Compound 1-3 sensitivity (PPC1): R | Compound 1-3 sensitivity (CAMA1): R | Compound 1-3 sensitivity (MDAMB453): S | Compound 1-3 sensitivity (Hela; Hela, cervix adenocarcinoma, AR−): R | IC50 (Hela; Homo sapiens, HeLa): > 20000 nM | Compound 1-3 sensitivity (PC3): R | Compound 1-3 sensitivity (HMEC): R | Compound 1-3 sensitivity (MCF10A): R | Compound 1-3 sensitivity (BT474): S | Compound 1-3 sensitivity (MDAMB415): S | Compound 1-3 sensitivity (ZR7530): S | Compound 1-3 sensitivity (UACC893): R | Compound 1-3 sensitivity (RCC45): R | Compound 1-3 sensitivity (CWR22R; CWR22R, castration resistant prostate cancer, AR+): S | IC50 (CWR22R; Homo sapiens, 22Rv1, CWR22R, read-out: IC50 for inhibition of growth): < 1000 nM | Compound 1-3 sensitivity (C4-2): S | Compound 1-3 sensitivity (Du145): R | Compound 1-3 sensitivity (MCF7): S | Compound 1-3 sensitivity (SUM185PE): S | Compound 1-3 sensitivity (normal hepatocytes): R | IC50 (MDA-MB-231): > 20000 nM | Compound 1-3 sensitivity (MiaPaca): R | Compound 1-3 sensitivity (VCaP): R | Compound 1-3 sensitivity (HT1080): R | Compound 1-3 sensitivity (ACHN): R | Compound 1-3 sensitivity (SKRC45): R | Compound 1-3 sensitivity (HepG2): S | Compound 1-3 sensitivity (Hep3B): S | Compound 1-3 sensitivity (T47D): S | Compound 1-3 sensitivity (EFM192A): S | Compound 1-3 sensitivity (HCC1419): R | Compound 1-3 sensitivity (LNCaP): S

SMILES: CCCn1c2ccccc2c2cc(-c3nnco3)ccc21 [PLA1079]
Mdm2 level (Mdm2): Mdm2 is no longer overexpressed | in vivo efficacy (CWR22R tumors; CWR22R in SCID mice, 5 IV daily injections or 10 IP daily injections): absence of in vivo efficacy | Tumor concentration ([1]; 100 mg/kg, IP/IV): 24 to 48 nM | CC50 (CWR22R): 120 nM | Caveolin1 expression upon treatment (Caveolin 1): did not change levels of Caveolinl expression | p21 expression (p21): overexpression of p21 in sensitive cells | AR level (androgen receptor): AR is being degraded | plasma concentration time course [2]: fast reduction of concentration during the first hour | bioavailability through IP injection [2]: very high

SMILES: CCCn1c2ccccc2c2c3c(ccc21)C(=O)N(C)C3 [PLA1098]
protection of target protein from pronase degradation [3]: protected their targets from degradation | tumor volume and tumor weight vs vehicle control (CWR22R tumors; CWR22R, 2 IP injections with 10 minute interval for two days, 12 days after treatment): certain reduction of tumor volume and tumor weigh in the 1098 treated group vs vehicle control, but not statistically significant | in vivo efficacy (CWR22R tumors; summary statement): evidence of in vivo efficacy | Liver ([1]; 100 mg/kg, IP): 0 nM | Tumor concentration ([1]; 100 mg/kg, IP): 23 to 25 nM | Intratumor concentration ([1]; 2 tested tumors, 24 hours after last injection): 25 nM | compound in liver ([1]; 24 hours after last injection): no detectable | compound in plasma ([1]; 24 hours after last injection): no detectable | CC50 (CWR22R): 40 nM | plasma concentration time course [2]: fast reduction of concentration during the first hour | bioavailability through IP injection [2]: very high | side effects during treatment ([4]; 2 IP injections with 10 minute interval, two days): no signs of side effects | signs of toxicity ([4]; summary statement): without any signs of toxicity

protection of target protein from pronase degradation [3]: faintly
SMILES: CCCn1c2ccccc2c2cc(S(C)(=O)=O)ccc21 [PLA1118]
